Assay results as given in US11129899B1, “Methotrexate derivatives and uses thereof” (S.S. Manufacturing Co., Ltd, priority 2021, dated 2021).

Tests used:
[1] = target: T1, Dihydrofolate reductase (DHFR) (Homo sapiens, UniProt P00374); test: Dihydrofolate reductase (DHFR) inhibitor assay (Sigma-Aldrich DHFR assay kit); format: biochemical
T1 construct: purchased Sigma-Aldrich
T1 sequence (P00374 1-187): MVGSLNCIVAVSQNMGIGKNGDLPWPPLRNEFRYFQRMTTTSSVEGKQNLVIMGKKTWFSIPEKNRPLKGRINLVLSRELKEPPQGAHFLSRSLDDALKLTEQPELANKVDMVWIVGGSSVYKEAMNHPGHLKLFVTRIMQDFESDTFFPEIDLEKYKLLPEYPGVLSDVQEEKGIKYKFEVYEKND
Description: According to the supplier protocol, the activity of DHFR reductase was measured at […], every 15 seconds for 2.5 minutes, with the Biochrom Anthos 2010 microplate reader (Biochrom Ltd., Cambourne, Cambridge, UK). The enzymatic activity was calculated by the following formula: […]

MCF-7 cells = test: cells; format: cell-based; details: Homo sapiens, MCF7, 24 h, read-out: IC50 (cytotoxicity)
Description: The human breast cancer cell line, MCF-7, was obtained from American Type Cell Collection (ATCC) (Rockville, Mo., U.S.A.). The cells were cultured to 70-80% confluence in Dulbecco's modified Eagle medium (DMEM) (Gibco, Grand Island, N.Y., U.S.A.) with 10% fetal bovine serum (FBS) (Gibco) at 37° C. and 5% CO2. MCF-7 cells were plated overnight in a 96-well plate (4,000 cells per well). […] Next, 10 μl/well of WST-1/ECS solution from the Quick Cell Proliferation Colorimetric Assay Kit (BioVision, Inc., Milptas, Calif., U.S.A.) was added, and the solution was incubated for 2 hours at 37° C. and 5% CO2. Absorbance was measured at 480 nm with the Biochrom Anthos 2010 microplate reader (Biochrom Ltd., Cambourne, Cambridge, UK). The half maximal inhibitory concentrations (IC50) were calculated from log-linear regression from the absorbance optical density (OD).

Lipid solubility in oil = format: physicochemical
Description: Embodied compound or Methrotrexate in DMSO (3 μg/μl) were dissolved in olive oil, canola oil and sunflower oil(Sigma-Aldrich (St. Louis, Mo., USA)) at 40° C. The suspended were vortexed and centrifuged at 3000 RPM, 10 mins periodically. Oil solvent volume was stepwise increased till completely soluble was observed and the soluble concentration were determined (Table 2). The solutions were left at 24° C. overnight and were centrifuged at 5000 RPM for 20 mins. Ten microliter of embodied compound in oils were added to 100 μl deionized (DI) water. The suspensions were vigorously vortex and left at room temperature.

| Structure (SMILES) | Dihydrofolate reductase (DHFR) activity ([1]; inhibitor 5 mM [sic]) [Unit/mgP] | Dihydrofolate reductase (DHFR) activity ([1]; inhibitor 5 mM [sic], % of no inhibitor) [%] | Dihydrofolate reductase (DHFR) activity ([1]; inhibitor 50 mM [sic]) [Unit/mgP] | Dihydrofolate reductase (DHFR) activity ([1]; inhibitor 50 mM [sic], % of no inhibitor) [%] | Dihydrofolate reductase (DHFR) activity ([1]; inhibitor 500 mM [sic]) [Unit/mgP] | Dihydrofolate reductase (DHFR) activity ([1]; inhibitor 500 mM [sic], % of no inhibitor) [%] | IC50 (MCF-7 cells) [µM] | Solubility in Oil (40° C.) (Lipid solubility in oil; Canola Oil) | Solubility in Oil (40° C.) (Lipid solubility in oil; Olive Oil) | Solubility in Oil (40° C.) (Lipid solubility in oil; Sunflower Oil) |
| --- | --- | --- | --- | --- | --- | --- | --- | --- | --- | --- |
| CC(C)CCC[C@@H](C)[C@H]1CC[C@H]2[C@@H]3CC=C4C[C@@H](OC(=O)NCCCCNCCCNC(=O)[C@H](CCC(=O)O)NC(=O)c5ccc(N(C)Cc6cnc7nc(N)nc(N)c7n6)cc5)CC[C@]4(C)[C@H]3CC[C@]12C [Embodied compound, (4S)-4-{[3-({4-[({[(1R,3aS,3bS,7S,9aR,9bS,11aR)-9a,11a-dimethyl-1-[(2R)-6-methylheptan-2-yl]-1H,2H,3H,3aH,3bH,4H,6H,7H,8H,9H,9aH,9bH,10H,11H,11aH-cyclopenta[a]phenanthren-7-yl]oxy}carbonyl)amino]butyl}amino)propyl]carbamoyl}-4-[(4-{[(2,4-diaminopteridin-6-yl)methyl](methyl)amino}phenyl)formamido]butanoic acid] | 1.261 | 8.41 | 0.561 | 3.74 | 0.561 | 3.74 | 60 | 81.3 mg/100 ml | 48.1 mg/100 ml | 103.6 mg/100 ml |
| CN(Cc1cnc2nc(N)nc(N)c2n1)c1ccc(C(=O)N[C@@H](CCC(=O)O)C(=O)O)cc1 [MTX, (2S)-2-[(4-{[(2,4-diaminopteridin-6-yl)methyl](methyl)amino}phenyl)formamido]pentanedioic acid, reference compound] |  |  |  |  |  |  | 3270 | less than 0.1 mg/100 ml | less than 0.1 mg/100 ml | less than 0.1 mg/100 ml |
